For this experiment, the target named is ROCK2 (Homo sapiens, UniProt O75116). Briefly: ROCK2 kinase inhibition assay (Caliper LABCHIP, FITC peptide substrate). The experiment is classed as biochemical. To be noted: 5 μM ATP, 1.5 μM peptide substrate; value ranges. In a few lines: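 Dose-response curves gave IC50 from inhibition of peptide phosphorylation, measured by LabChip separation after EDTA stop. Reactions used 1.5 μM FITC-labelled peptide, 5 μM ATP, 20 mM HEPES pH 7.5 with MgCl2, Brij-35, DTT, and under 2% DMSO.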
Chain of ROCK2 (O75116 whole entry, species assumed): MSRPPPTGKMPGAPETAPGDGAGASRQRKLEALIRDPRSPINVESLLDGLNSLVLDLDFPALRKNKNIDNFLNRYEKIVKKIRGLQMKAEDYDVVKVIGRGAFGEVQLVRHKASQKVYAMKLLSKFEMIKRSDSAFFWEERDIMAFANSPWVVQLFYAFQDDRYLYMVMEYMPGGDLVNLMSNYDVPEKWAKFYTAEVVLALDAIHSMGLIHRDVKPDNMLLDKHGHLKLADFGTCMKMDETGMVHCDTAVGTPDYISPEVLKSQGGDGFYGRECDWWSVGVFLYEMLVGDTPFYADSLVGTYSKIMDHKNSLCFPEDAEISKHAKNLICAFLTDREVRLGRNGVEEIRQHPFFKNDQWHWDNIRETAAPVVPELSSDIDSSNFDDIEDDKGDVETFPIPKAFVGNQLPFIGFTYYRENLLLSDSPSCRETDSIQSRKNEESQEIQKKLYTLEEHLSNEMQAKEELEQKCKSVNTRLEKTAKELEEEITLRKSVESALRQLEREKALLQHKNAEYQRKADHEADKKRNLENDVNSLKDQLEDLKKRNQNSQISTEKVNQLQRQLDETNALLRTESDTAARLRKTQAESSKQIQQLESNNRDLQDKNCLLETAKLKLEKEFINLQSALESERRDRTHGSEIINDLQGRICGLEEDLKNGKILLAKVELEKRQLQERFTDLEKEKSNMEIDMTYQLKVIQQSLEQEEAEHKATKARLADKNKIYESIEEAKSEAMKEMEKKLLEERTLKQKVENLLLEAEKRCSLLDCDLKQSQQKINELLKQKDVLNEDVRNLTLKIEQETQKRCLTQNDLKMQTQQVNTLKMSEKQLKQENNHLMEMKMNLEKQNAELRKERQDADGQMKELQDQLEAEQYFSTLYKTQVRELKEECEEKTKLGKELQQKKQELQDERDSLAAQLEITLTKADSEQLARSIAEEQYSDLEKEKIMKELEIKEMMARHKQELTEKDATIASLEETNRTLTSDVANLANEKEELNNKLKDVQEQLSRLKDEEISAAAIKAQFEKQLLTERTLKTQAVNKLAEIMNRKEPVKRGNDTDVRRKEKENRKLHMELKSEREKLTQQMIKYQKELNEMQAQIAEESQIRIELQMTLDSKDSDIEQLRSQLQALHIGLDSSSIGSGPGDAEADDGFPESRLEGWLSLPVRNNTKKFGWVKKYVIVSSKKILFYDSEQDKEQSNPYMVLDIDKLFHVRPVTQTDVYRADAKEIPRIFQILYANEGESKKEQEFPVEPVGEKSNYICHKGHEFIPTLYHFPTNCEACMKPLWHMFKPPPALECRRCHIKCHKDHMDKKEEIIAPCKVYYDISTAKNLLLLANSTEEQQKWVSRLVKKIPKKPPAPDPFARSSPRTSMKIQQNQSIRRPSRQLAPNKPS
A word on the IC50: it is the midpoint of a concentration-inhibition curve. Read a high IC50 as weaker potency in that assay. For the compound `COCC(c1cccc(OC)c1)N1CCN(c2ccc(-c3cn[nH]c3)cc2)C1=O` (single isomer, unassigned) [Example 156, 1-(4-(1H-Pyrazol-4-yl)phenyl)-3-(2-methoxy-1-(3-methoxyphenyl)ethyl)imidazolidin-2-one], the half-maximal inhibitory concentration (IC50) was 2.1 to 20 nM. Take `COc1nc(-n2ccn(Cc3ccc(F)cc3F)c2=O)ccc1-c1cn[nH]c1` [Example 414, 1-(2,4-difluorobenzyl)-3-(6-methoxy-5-(1H-pyrazol-4-yl)pyridin-2-yl)-1H-imidazol-2(3H)-one]: the IC50 lay in the range of 20.1 to 200 nM.

Compound `COc1cccc(CN2CCN(c3cc(OC)c(-c4cn[nH]c4)cn3)C2=O)c1` [Example 423, 1-(4-Methoxy-5-(1H-pyrazol-4-yl)pyridin-2-yl)-3-(3-methoxybenzyl)imidazolidin-2-one] showed an IC50 of 2.1 to 20 nM. `COc1nc(-n2ccn(Cc3cc(F)cc(OCC4CC4)c3)c2=O)ccc1-c1cn[nH]c1` [Example 395, 1-(3-(cyclopropylmethoxy)-5-fluorobenzyl)-3-(6-methoxy-5-(1H-pyrazol-4-yl)pyridin-2-yl)-1H-imidazol-2(3H)-one] came in with an IC50 of 2.1 to 20 nM. In the case of `COc1cc(N2CC(CO)N(Cc3ccccc3)C2=O)ccc1-c1cn[nH]c1` (centres unmarked) [Example 41, 3-Benzyl-4-(hydroxymethyl)-1-(3-methoxy-4-(1H-pyrazol-4-yl)phenyl)imidazolidin-2-one], the IC50 fell in the range of 2.1 to 20 nM. For the compound `CCc1cc(N2CCN(Cc3cccc(OC)c3)C2=O)ncc1-c1cn[nH]c1` [Example 190, 1-(4-ethyl-5-(1H-pyrazol-4-yl)pyridin-2-yl)-3-(3-methoxy-benzyl) imidazolidin-2-one], the IC50 lay within 200 to 2000 nM. Consider `CCOc1cccc(C(C)n2ccn(-c3ccc(-c4cn[nH]c4)c(CC)n3)c2=O)c1` (single isomer, unassigned) [Example 364, 1-(1-(3-ethoxyphenyl)ethyl)-3-(6-ethyl-5-(1H-pyrazol-4-yl)pyridin-2-yl)-1H-imidazol-2(3H)-one], for which the IC50 was 20.1 to 200 nM. Compound `COc1cc(N2C(=O)CN(C(C)c3ccccc3)C2=O)ccc1-c1cn[nH]c1` (centres unmarked) [Example 96, 3-(3-methoxy-4-(1H-pyrazol-4-yl)phenyl)-1-(1-phenylethyl)imidazolidine-2,4-dione] had an IC50 of 200 to 2000 nM. The value for `COc1ccc(F)cc1CN1CCN(c2ccc(-c3cn[nH]c3)cc2)C1=O` [Example 119, 1-(4-(1H-pyrazol-4-yl)phenyl)-3-(5-fluoro-2-methoxybenzyl)imidazolidin-2-one] was 20.1 to 200 nM. On to `COc1cccc(CN2CCN(c3ccc(-c4cn[nH]c4)c(C(F)(F)F)c3)C2=O)c1` [Example 275, 1-(4-(1H-pyrazol-4-yl)-3-(trifluoromethyl)phenyl)-3-(3-methoxybenzyl)imidazolidin-2-one], for which the half-inhibitory concentration (IC50) lay within 20.1 to 200 nM. The value for `CCc1cc(-n2ccn(C(C)c3cccc(OC)c3)c2=O)ccc1-c1cn[nH]c1` (single isomer, unassigned) [Example 353, 1-(3-ethyl-4-(1H-pyrazol-4-yl)phenyl)-3-(1-(3-methoxyphenyl)ethyl)-1H-imidazol-2(3H)-one] was 2.1 to 20 nM.

`COc1cccc(CN2C(=O)N(c3ccc(-c4cn[nH]c4)cc3)C[C@@H]2CO)c1` [Example 125, (R)-1-(4-(1H-Pyrazol-4-yl)phenyl)-4-(hydroxymethyl)-3-(3-methoxybenzyl)imidazolidin-2-one] came in with an IC50 of less than 2 nM. In turn, `COc1cc(F)cc(C(C)N2CCN(c3ccc(-c4cn[nH]c4)c(OC)n3)C2=O)c1` (single isomer, unassigned) [Example 229, 1-(1-(3-fluoro-5-methoxyphenyl)ethyl)-3-(6-methoxy-5-(1H-pyrazol-4-yl)pyridin-2-yl)imidazolidin-2-one] registered a concentration for half-maximal inhibition (IC50) of 2.1 to 20 nM.

Compound `COc1cc(C(C)N2CCN(c3ccc(-c4cn[nH]c4)c(C)n3)C2=O)ccc1F` (single isomer, unassigned) [Example 208, 1-(1-(4-fluoro-3-methoxyphenyl)ethyl)-3-(6-methyl-5-(1H-pyrazol-4-yl)pyridin-2-yl)imidazolidin-2-one] had a concentration for half-maximal inhibition (IC50) of 200 to 2000 nM.

Values taken from US10123993B2, “Cyclic ureas as inhibitors of rock” (BRISTOL-MYERS SQUIBB COMPANY, priority 2015, dated 2018).
